Laboratory results taken from patent publication US10201526B2, “Compositions and methods for inhibiting the growth of neisseria gonorrhoeae” (Research Institute at Nationwide Children's Hospital, priority 2015, dated 2019).

Tests used:
[1] = system: Ng invasion of and survival within PEX cells; experiment: Gentamicin-survival assays: Ng invasion of and survival within PEX cells with estradiol, progesterone, Akt inhibitor; format: cell-based, Neisseria gonorrhoeae
Description: Progesterone (Pg) augments gonococcal invasion of and survival within PEX cells. […] Therefore, to more closely mimic the luteal phase of the menses cycle, when Pg concentrations fluctuate between 3 nM and 30 nM, the effect of Pg on Ng invasion of and survival within PEX cells was evaluated using a gentamicin-survival assays with 0.4 nM of estradiol (E2) and variable concentrations of Pg (FIG. 1)
Further studies were conducted to determine if Pg augmented the ability of gonococci to survive intracellularly within PEX cells. Following gentamicin treatment (to kill extracellular bacteria), infected cell monolayers were either lysed (releasing the invasive Ng) and serial dilutions were plated, or they were re-incubated in antibiotic free medium for 1 or 3 hours longer before plating the PEX cell lysate and quantitating colony forming units. Akt inhibitor VII was included or omitted from these experiments.

[2] = Phase I oncology study of AR-12; format: in vivo, human
Excerpt: AR-12 was originally investigated in a Phase I oncology study (27), an IND (IND #103799) was previously filed with the Food and Drug Administration (FDA), and an Investigational Medicinal Product Dossier (IMPD) was filed with the Medicines and Healthcare Products Regulatory Agency (MHRA Reference: 35725/0001/001-0001 [EudraCT Number: 2009-014285-25]) in the United Kingdom, which enabled the Phase I study entitled: “A Phase I Study of AR-12 (2-Amino-N-[4-[5-(2-phenanthrenyl)-3-(trifluoromethyl)-1H-pyrazol-1-yl]phenyl]-acetamide) in Adult Patients With Advanced or Recurrent Solid Tumors or Lymphoma, for Which No Standard Therapy Is Available”. […] Thirty-five patients were enrolled at nine dose levels. With the original formulation tested, the recommended oncology Phase II dose was 800 mg twice daily.
The half-life in humans is long and is estimated to be approximately 60 hours. […] This is a favorable property for the treatment of Ng, which is, with rare exception, a mucosal pathogen. AR-12 is slowly released from the tissue back into the bloodstream and slowly excreted, which explains its long half-life.

[3] = preclinical studies (ref. 36); cited from earlier work
[4] = system: Ng strains 1291 and (MDR) WHO-M; experiment: Modified gentamicin survival assay, drug added to established Ng infection of PEX cells; format: cell-based, Neisseria gonorrhoeae
Description: Modified gentamicin survival assays were performed in which pex cells were challenged with our preferred laboratory Ng strain, 1291, or the MDR Ng strain, WHO-M (beta-lactam-, ciprofloxacin-, and rifampicin-resistant; plus a mtrR mutation that could effect resistance to other compounds (35)). Infections were allowed to proceed for 90 min to allow Ng to adhere to and invade PEX cells. Vehicle control, AR-12, ceftriaxone, or gentamicin was then added to established infections.
At the indicated times post-challenge, the infection medium was removed, the PEX cell monolayers were rinsed and lysed, and viable Ng were enumerated by counting CFUs after plating serial dilutions of the PEX cell lysates. The percentage of Ng that survived the test treatment was determined as a function of the infection inoculum. In this aspect, the units are colony forming units—percent survival calculated as: [(#CFU (x dilution factor)) divided by (number of bacteria used as the infection inoculum (˜typically 1×10^7 bacteria per ml))×100]. A significant reduction (at least about 300 fold) in viable Ng was observed following a 3-hour incubation with 10 μM AR-12 (FIG. 2A).
Concentrations of AR-12 tested are shown on the x-axis. “None” refers to vehicle control.

Ng = experiment: Antimicrobial disk diffusion assays; parameters: species or system Neisseria gonorrhoeae; settings: no human cells
Excerpt: This effect was specific to infection of human cells in that AR-12 was not effective against the Ng by antimicrobial disk diffusion assays, which prohibit Ng growth on agar plates.

[5] = Stability at ambient conditions (cGMP material); format: physicochemical
Excerpt: AR-12 was initially developed by Arno Therapeutics (Arno) in 2008 for an oncology indication. In support of this oncology program, Arno initiated an Investigational New Drug (IND) enabling toxicology program, which included standard Good Laboratory Practice (GLP) tests (e. g. genotoxicity), a battery of safety pharmacology studies, and 28-day general toxicity assessments performed in rats and dogs. Before Arno's involvement, the National Cancer Institute had generated preclinical ADME (i. e., absorption, distribution, metabolism, and excretion) and toxicology data in the mouse model as part of the Rapid Access to Intervention Development (RAID) program. AR-12 synthesis was optimized and scaled-up to approximately 50 kg (purity >99.5%; stability ≥24 months at ambient conditions) under Current Good Manufacturing Practices (cGMP) conditions in anticipation of continued clinical development in the oncology setting.

[6] = by 24 hours post-AR-12 treatment

Row | Structure (SMILES) | gonococcal invasion of PEX cells ([1]; 0.4 nM estradiol, variable concentrations of Pg (FIG. 1A)) | ability of gonococci to invade, as well as survive within, PEX cells ([1]; presence of Pg, 1 or 3 hours post-invasion (FIG. 1B)) | dose limiting toxicities (DLT) ([2]; doses appropriate in the oncology setting, human) | half-life ([2]; human, blood, oral dosage form, Phase I study, estimated, read-out: half-life in humans (converted)) | safety profile ([2]; long-term oral exposures up to 33 weeks, phase I study) | recommended oncology Phase II dose ([2]; original formulation, human) | accumulation in tissues relative to blood level concentrations [3] | blood brain barrier penetration [3] | reduction in viable Ng ([4]; 10 μM AR-12, 3-hour incubation, Ng-infected PEX cells (FIG. 2A)) | viable Ng recovered ([4]; 10 μM AR-12, 24 h (FIG. 2C)) | reduction of the amount of viable Ng (CFU) compared to an untreated infection ([4]; 10 μM AR-12, after about 6 hours (FIG. 2E)) | reduction of the amount of viable Ng (CFU) compared to an untreated infection ([4]; 10 μM AR-12, after about 24 hours (FIG. 2E)) | reduction in the number of viable Ng ([4]; AR-12 treatment 6 h, Ng-infected PEX cells (FIG. 2B)) | killing of Ng (bactericidal effect) [4, 6] | spontaneous resistance to AR-12 [4, 6] | effectiveness against Ng on agar plates (Ng) | stability [5]
1 | CC(=O)[C@H]1CC[C@H]2[C@@H]3CCC4=CC(=O)CC[C@]4(C)[C@H]3CC[C@]12C [Pg, Progesterone] | increased with increasing concentrations of Pg | enhanced |  |  |  |  |  |  |  |  |  |  |  |  |  |  | 
2 | NCC(=O)Nc1ccc(-n2nc(C(F)(F)F)cc2-c2ccc3c(ccc4ccccc43)c2)cc1 [AR-12, 2-amino-N-(4-(5-(phenanthren-2-yl)-3-(trifluoromethyl)-1H-pyrazol-1-yl)phenyl)acetamide] |  |  | fatigue, dizziness, and skin rash | ~60 h | acceptable safety profile | 800 mg twice daily | exceeding the blood level concentrations several fold | rapid blood brain barrier penetration | at least 300 fold | no viable Ng were recovered | at least 3 log | at least 7 log | at least 600 fold | 100% | no spontaneous resistance | not effective | ≥ 24 months
